Data: patent US12540131B2 (Merck Sharp & Dohme LLC, priority 2019, dated 2026)

Molecular target: GST tagged truncated human mutant G2019S LRRK2 (Homo sapiens (Human), UniProt Q5S007, G2019S)
Experiment: LRRK2 Km ATP LanthaScreen Assay
Assay type: biochemical
Settings: G2019S LRRK2, 134 μM ATP (Km ATP), mean values
Summary of the method: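 Enzyme (GST-tagged, truncated) was preincubated with compound for 15 min at RT in 50 mM Tris pH 8.5, 10 mM MgCl2, 0.01% Brij-35, 1 mM EGTA, 2 mM DTT and 0.05 mM orthovanadate. Fluorescein-LRRKtide and 134 μM ATP (Km) were then added for 90 min. EDTA and Tb-anti-pERM antibody stopped the reaction; the TR-FRET 520/495 ratio gave 4-parameter IC50s, reported as mean pIC50.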

Sequence of GST tagged truncated human mutant G2019S LRRK2 (Q5S007 970-2527 G2019S): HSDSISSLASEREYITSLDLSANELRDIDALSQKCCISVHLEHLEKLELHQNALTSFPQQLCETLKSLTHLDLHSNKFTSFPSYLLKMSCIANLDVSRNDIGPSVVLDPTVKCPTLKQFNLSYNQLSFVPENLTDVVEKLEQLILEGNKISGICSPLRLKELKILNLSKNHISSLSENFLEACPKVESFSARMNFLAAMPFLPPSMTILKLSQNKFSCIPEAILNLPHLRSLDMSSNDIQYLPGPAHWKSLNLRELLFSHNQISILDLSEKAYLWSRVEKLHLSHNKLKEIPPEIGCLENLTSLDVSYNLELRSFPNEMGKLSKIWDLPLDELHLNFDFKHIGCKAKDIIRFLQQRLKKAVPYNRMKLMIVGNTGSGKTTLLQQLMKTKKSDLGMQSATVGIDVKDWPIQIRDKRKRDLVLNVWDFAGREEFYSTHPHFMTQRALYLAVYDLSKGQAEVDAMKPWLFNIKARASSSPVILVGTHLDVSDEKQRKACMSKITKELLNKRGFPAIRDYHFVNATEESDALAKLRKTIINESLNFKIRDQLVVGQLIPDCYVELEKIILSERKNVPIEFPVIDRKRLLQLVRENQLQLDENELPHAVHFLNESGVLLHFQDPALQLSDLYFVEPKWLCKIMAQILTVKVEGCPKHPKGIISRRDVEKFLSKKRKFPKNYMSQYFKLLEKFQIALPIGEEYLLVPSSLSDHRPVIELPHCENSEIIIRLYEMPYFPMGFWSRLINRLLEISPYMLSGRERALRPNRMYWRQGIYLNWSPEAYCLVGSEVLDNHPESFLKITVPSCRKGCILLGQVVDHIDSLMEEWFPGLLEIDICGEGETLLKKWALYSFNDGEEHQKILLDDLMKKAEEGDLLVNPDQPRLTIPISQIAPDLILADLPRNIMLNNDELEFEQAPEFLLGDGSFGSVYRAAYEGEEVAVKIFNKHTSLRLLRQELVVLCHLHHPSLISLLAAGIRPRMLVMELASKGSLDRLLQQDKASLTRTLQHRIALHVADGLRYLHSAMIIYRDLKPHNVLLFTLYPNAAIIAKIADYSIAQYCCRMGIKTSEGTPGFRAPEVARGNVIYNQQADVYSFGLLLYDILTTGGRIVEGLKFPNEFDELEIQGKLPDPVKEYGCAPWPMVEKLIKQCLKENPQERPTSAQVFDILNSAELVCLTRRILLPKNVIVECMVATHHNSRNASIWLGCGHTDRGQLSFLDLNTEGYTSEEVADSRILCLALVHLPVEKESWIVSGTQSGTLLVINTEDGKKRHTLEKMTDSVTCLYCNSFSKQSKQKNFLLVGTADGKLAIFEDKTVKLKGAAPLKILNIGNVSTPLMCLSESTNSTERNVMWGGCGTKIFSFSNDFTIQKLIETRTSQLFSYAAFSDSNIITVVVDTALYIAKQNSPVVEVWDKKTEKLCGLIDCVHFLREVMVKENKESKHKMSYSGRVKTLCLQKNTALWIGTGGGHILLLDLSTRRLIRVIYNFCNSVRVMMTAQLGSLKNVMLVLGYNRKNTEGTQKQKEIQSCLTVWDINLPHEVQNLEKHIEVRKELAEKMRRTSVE

Row | SMILES | LRRK2 pIC50 | IC50 (read-out: LRRK2 pIC50 (converted)) [nM]
1 | Cc1c(Nc2ncc3cc(Cl)c(C4CCN(C5(C)COC5)CC4)cc3n2)cnn1C12CC(C1)C2 [Ex-2.22, N-[1-(bicyclo[1.1.1]pentan-1-yl)-5-methyl-1H-pyrazol-4-yl]-6-chloro-7-[1-(3-methyloxetan-3-yl)piperidin-4-yl]quinazolin-2-amine] | >9.20 | –
2 | COCC12CC(n3ncc(Nc4ncc5cc(Cl)c(C6CCN(C7COC7)CC6)cc5n4)c3C)(C1)C2 [Ex-2.31, 6-chloro-N-{1-[3-(methoxymethyl)bicyclo[1.1.1]pentan-1-yl]-5-methyl-1H-pyrazol-4-yl}-7-[1-(oxetan-3-yl)piperidin-4-yl]quinazolin-2-amine] | >9.20 | –
3 | COCC12CC(n3ncc(Nc4ncc5cc(Cl)c(C6CCN(C7(C)COC7)CC6)cc5n4)c3C)(C1)C2 [Ex-2.32, 6-chloro-N-{1-[3-(methoxymethyl)bicyclo[1.1.1]pentan-1-yl]-5-methyl-1H-pyrazol-4-yl}-7-[1-(3-methyloxetan-3-yl)piperidin-4-yl] quinazolin-2-amine] | – | < 0.631
4 | OC1COCC1n1ncc(Nc2ncc3cc(Cl)c(C4CCN(C5COC5)CC4)cc3n2)c1Cl (stereo not shown) [Ex-2.48, 4-[5-chloro-4-({6-chloro-7-[1-(oxetan-3-yl)piperidin-4-yl]quinazolin-2-yl}amino)-1H-pyrazol-1-yl]oxolan-3-ol] | 8.77 | –
5 | COC(C)(C)C12CC(n3cc(Nc4ncc5cc(Cl)c(C6CCN(C7(C)COC7)CC6)cc5n4)cn3)(C1)C2 [Ex-2.56, 6-chloro-N-{1-[3-(2-methoxypropan-2-yl)bicyclo[1.1.1]pentan-1-yl]-1H-pyrazol-4-yl}-7-[1-(3-methyloxetan-3-yl)piperidin-4-yl]quinazolin-2-amine] | 8.75 | –
6 | CC1(N2CCC(c3cc4nc(Nc5cnn(C67CC(CO)(C6)C7)c5)ncc4cc3Cl)CC2)COC1 [Ex-2.57, {3-[4-({6-chloro-7-[1-(3-methyloxetan-3-yl)piperidin-4-yl]quinazolin-2-yl}amino)-1H-pyrazol-1-yl]bicyclo[1.1.1]pentan-1-yl}methanol] | >9.20 | –
7 | CC1(N2CCC(c3cc4nc(Nc5cnn(C67CC(C(C)(C)O)(C6)C7)c5)ncc4cc3Cl)CC2)COC1 [Ex-2.58, 2-{3-[4-({6-chloro-7-[1-(3-methyloxetan-3-yl)piperidin-4-yl]quinazolin-2-yl}amino)-1H-pyrazol-1-yl]bicyclo[1.1.1]pentan-1-yl}propan-2-ol] | 9.17 | –
8 | CN(C)CC12CC(n3cc(Nc4ncc5cc(Cl)c(C6CCN(C7(C)COC7)CC6)cc5n4)cn3)(C1)C2 [Ex-2.59, 6-chloro-N-(1-{3-[(dimethylamino)methyl]bicyclo [1.1.1]pentan-1-yl}-1H-pyrazol-4-yl)-7-[1-(3-methyloxetan-3-yl)piperidin-4-yl]quinazolin-2-amine] | >9.20 | –
9 | CC1(N2CCC(c3cc4nc(Nc5cnn(C67CC(CN8CC(F)(F)C8)(C6)C7)c5)ncc4cc3Cl)CC2)COC1 [Ex-2.60, 6-chloro-N-(1-{3-[(3,3-difluoroazetidin-1-yl)methyl]bicyclo[1.1.1]pentan-1-yl}-1H-pyrazol-4-yl)-7-[1-(3-methyloxetan-3-yl)piperidin-4-yl]quinazolin-2-amine] | >9.20 | –
10 | Cc1nn(CC(C)(C)O)cc1Nc1ncc2cc(Cl)c(C3CCN(C4COC4)CC3)cc2n1 [Ex-2.61, 1-[4-({6-chloro-7-[1-(oxetan-3-yl)piperidin-4-yl]quinazolin-2-yl}amino)-3-methyl-1H-pyrazol-1-yl]-2-methylpropan-2-ol] | 8.66 | –
11 | Cn1nc(C2CC2)cc1Nc1ncc2cc(Cl)c(C3CCN(C4COC4)CC3)cc2n1 [Ex-2.62, 6-chloro-N-(3-cyclopropyl-1-methyl-1H-pyrazol-5-yl)-7-[1-(oxetan-3-yl)piperidin-4-yl]quinazolin-2-amine] | 7.88 | –
12 | Cc1c(Nc2ncc3cc(Cl)c(C4CCC(C)(O)CC4)cc3n2)cnn1C1CC1 (stereo not drawn) [Ex-2.63, cis- or trans-4-{6-chloro-2-[(1-cyclopropyl-5-methyl-1H-pyrazol-4-yl)amino]quinazolin-7-yl}-1-methylcyclohexan-1-ol] | 8.92 | –
13 | Cc1cc2cnc(Nc3cnn(C4CC4)c3Cl)nc2cc1C1CCC(C)(O)CC1 (stereo not drawn) [Ex-2.64, cis- or trans-4-{2-[(5-chloro-1-cyclopropyl-1H-pyrazol-4-yl)amino]-6-methylquinazolin-7-yl}-1-methylcyclohexan-1-ol] | 9.02 | –
14 | [2H]C([2H])([2H])n1ncc(Nc2ncc3cc(Cl)c(C4CCN(C5(C)COC5)CC4)cc3n2)c1Cl [Ex-2.72, 6-chloro-N-(5-chloro-1-(methyl-d3)-1H-pyrazol-4-yl)-7-(1-(3-methyloxetan-3-yl)piperidin-4-yl)quinazolin-2-amine] | 8.90 | –
15 | CC(C)(O)Cn1ncc(Nc2ncc3cc(Cl)c(C4CCN(C5COC5)CC4)cc3n2)c1Cl [Ex-4.3, 1-(5-chloro-4-((6-chloro-7-(1-(oxetan-3-yl)piperidin-4-yl)quinazolin-2-yl)amino)-1H-pyrazol-1-yl)-2-methylpropan-2-ol] | >9.20 | –
16 | CC1(n2ncc(Nc3ncc4cc(Cl)c(C5CCN(C(F)(F)F)CC5)cc4n3)c2Cl)CC1 [Ex-4.7, 6-chloro-N-(5-chloro-1-(1-methylcyclopropyl)-1H-pyrazol-4-yl)-7-(1-(trifluoromethyl)piperidin-4-yl)quinazolin-2-amine] | 7.74 | –

Row | SMILES | LRRK2 pIC50 | IC50 (read-out: LRRK2 pIC50 (converted)) [nM]
17 | CC(=O)N1CCC(c2cc3nc(Nc4cnn(C5CC5)c4Cl)ncc3cc2Cl)C[C@@H]1C (stereo partly shown) [Ex-4.8] | 7.39 | –
18 | O=S1(=O)CC(N2CCC(c3cc4nc(Nc5cnn(CC(F)F)c5Cl)ncc4cc3Cl)CC2)C1 [Ex-4.14, 3-(4-(6-chloro-2-((5-chloro-1-(2,2-difluoroethyl)-1H-pyrazol-4-yl)amino)quinazolin-7-yl)piperidin-1-yl)thietane 1,1-dioxide] | >9.20 | –
19 | Clc1cc2cnc(Nc3cnn(C4CCC4)c3Cl)nc2cc1C1CCN(C2COC2)CC1 [Ex-4.15, 6-chloro-N-(5-chloro-1-cyclobutyl-1H-pyrazol-4-yl)-7-[1-(oxetan-3-yl)piperidin-4-yl]quinazolin-2-amine] | >9.20 | –
20 | Clc1cc2cnc(Nc3cnn(CC4CC4)c3Cl)nc2cc1C1CCN(C2COC2)CC1 [Ex-4.16, 6-chloro-N-[5-chloro-1-(cyclopropylmethyl)-1H-pyrazol-4-yl]-7-[1-(oxetan-3-yl)piperidin-4-yl]quinazolin-2-amine] | >9.20 | –
21 | Clc1cc2cnc(Nc3cnn(C4COC4)c3Cl)nc2cc1C1CCN(C2COC2)CC1 [Ex-4.17, 6-chloro-N-[5-chloro-1-(oxetan-3-yl)-1H-pyrazol-4-yl]-7-[1-(oxetan-3-yl)piperidin-4-yl]quinazolin-2-amine] | >9.20 | –
22 | FC(F)n1cc(Nc2ncc3cc(Cl)c(C4CCN(C5COC5)CC4)cc3n2)cn1 [Ex-4.18, 6-chloro-N-[1-(difluoromethyl)-1H-pyrazol-4-yl]-7-[1-(oxetan-3-yl)piperidin-4-yl]quinazolin-2-amine] | 9.16 | –
23 | Clc1cc2cnc(Nc3cnn(CC4CCC4)c3Cl)nc2cc1C1CCN(C2COC2)CC1 [Ex-4.19, 6-chloro-N-[5-chloro-1-(cyclobutylmethyl)-1H-pyrazol-4-yl]-7-[1-(oxetan-3-yl)piperidin-4-yl]quinazolin-2-amine] | 9.17 | –
24 | CC1(CN2CCC(c3cc4nc(Nc5cnn(C6CC6)c5Cl)ncc4cc3Cl)CC2)COC1 [Ex-4.20, 6-chloro-N-(5-chloro-1-cyclopropyl-1H-pyrazol-4-yl)-7-{1-[(3-methyloxetan-3-yl)methyl]piperidin-4-yl}quinazolin-2-amine] | 8.11 | –
25 | CC1(n2ncc(Nc3ncc4cc(Cl)c(C5(F)CCN(C6COC6)CC5)cc4n3)c2Cl)CC1 [Ex-4.24, 6-chloro-N-[5-chloro-1-(1-methylcyclopropyl)-1H-pyrazol-4-yl]-7-[4-fluoro-1-(oxetan-3-yl)piperidin-4-yl]quinazolin-2-amine] | >9.20 | –
26 | FC1(c2cc3nc(Nc4cnn(C5CC5)c4Cl)ncc3cc2Cl)CCN(C2COC2)CC1 [Ex-4.31, 6-chloro-N-(5-chloro-1-cyclopropyl-1H-pyrazol-4-yl)-7-[4-fluoro-1-(oxetan-3-yl)piperidin-4-yl]quinazolin-2-amine] | 8.23 | –
27 | CN1CCC(F)(c2cc3nc(Nc4cnn(C5CC5)c4Cl)ncc3cc2Cl)CC1 [Ex-4.36, 6-chloro-N-(5-chloro-1-cyclopropyl-1H-pyrazol-4-yl)-7-(4-fluoro-1-methylpiperidin-4-yl)quinazolin-2-amine] | 8.29 | –
28 | Cc1cc(Nc2ncc3cc(Cl)c(C4CCN(C5COC5)CC4)cc3n2)sn1 [Ex-4.45, 6-chloro-N-(3-methyl-1,2-thiazol-5-yl)-7-[1-(oxetan-3-yl)piperidin-4-yl]quinazolin-2-amine] | >9.20 | –
29 | Cc1c(Nc2ncc3cc(Cl)c(C4CCN(C5COC5)CC4)cc3n2)cnn1CCF [Ex-4.54, 6-chloro-N-[1-(2-fluoroethyl)-5-methyl-1H-pyrazol-4-yl]-7-[1-(oxetan-3-yl)piperidin-4-yl]quinazolin-2-amine] | >9.20 | –
30 | FC(F)Cn1ncc(Nc2ncc3cc(Cl)c(C4CCN(C5COC5)CC4)cc3n2)c1Cl [Ex-4.55, 6-chloro-N-[5-chloro-1-(2,2-difluoroethyl)-1H-pyrazol-4-yl]-7-[1-(oxetan-3-yl)piperidin-4-yl]quinazolin-2-amine] | >9.20 | –
31 | CC1(n2ncc(Nc3ncc4cc(Cl)c(C5CCN(C6COC6)CC5)cc4n3)c2Cl)CC1 [Ex-4.56, 6-chloro-N-[5-chloro-1-(1-methylcyclopropyl)-1H-pyrazol-4-yl]-7-[1-(oxetan-3-yl)piperidin-4-yl]quinazolin-2-amine] | >9.20 | –
